Measured values taken from patent US20210139484A1, “DIHYDROISOQUINOLINE-2(1H)-CARBOXAMIDE AND RELATED COMPOUNDS AND THEIR USE IN TREATING MEDICAL CONDITIONS” (GOSSAMER BIO SERVICES, INC., priority 2018, published 2021).

Each compound was assayed against T1, human HPK1 protein (Homo sapiens, UniProt Q92918) (assay: Human HPK1 protein TR-FRET assay). Conditions: 1 mM ATP, Table 19.
T1 construct: recombinant human HPK1 protein (a.a. 1-346) was expressed in Sf9 insect cells; GST (N); purchased Signalchem M23-11G; host or cells: Sf9 insect cells (baculovirus)
T1 sequence (Q92918 1-346): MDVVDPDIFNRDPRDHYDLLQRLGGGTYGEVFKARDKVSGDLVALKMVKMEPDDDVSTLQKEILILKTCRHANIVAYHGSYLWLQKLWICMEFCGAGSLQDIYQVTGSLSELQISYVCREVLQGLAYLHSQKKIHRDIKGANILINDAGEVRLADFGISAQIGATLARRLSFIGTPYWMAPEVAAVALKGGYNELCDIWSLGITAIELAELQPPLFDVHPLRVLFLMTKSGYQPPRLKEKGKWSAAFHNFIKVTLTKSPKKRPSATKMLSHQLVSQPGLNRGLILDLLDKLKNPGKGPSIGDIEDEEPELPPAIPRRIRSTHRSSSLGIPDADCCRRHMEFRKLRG
Format: biochemical
Summary of the method: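 Read-out was TR-FRET using Eu-labeled anti-phospho-CREB (Ser133) antibody, with the 665/615 nm signal ratio normalised to DMSO-only wells and fitted by a 4-parameter logistic model for IC50. Reactions held 10 nM Sf9-expressed GST-HPK1 (a.a. 1-346), 100 nM CREBtide and 1 mM ATP, run 60 minutes at room temperature, pH 7.5.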

| SMILES | IC50 [nM] |
| --- | --- |
| CCN1CCN(Cc2ccc(NC(=O)N3CCc4cc(F)c(Oc5ccnn6cccc56)cc4C3C)cc2C(F)(F)F)CC1 (stereo not shown) [IV-32] | > 10000 |
| CCN1CCN(Cc2ccc(NC(=O)N3CCc4ncc(Oc5ccnc6[nH]ccc56)cc4C3C)cc2C(F)(F)F)CC1 (stereo not shown) [compound 9, 3-((1H-pyrrolo[2,3-b]pyridin-4-yl)oxy)-N-(4-((4-ethylpiperazin-1-yl)methyl)-3-(trifluoromethyl)phenyl)-5-methyl-7,8-dihydro-1,6-naphthyridine-6(5H)-carboxamide] | < 500 |
| CCN1CCN(Cc2ccc(NC(=O)N3CCc4ccc(Oc5ncnc6[nH]c(C)cc56)cc4[C@@H]3C)cc2C(F)(F)F)CC1 [V-28] | < 500 |
| Cc1cc2c(Oc3ccc4c(c3)[C@H](C)N(C(=O)Nc3cnc(OC5CCN(CCO)CC5)c(C(F)(F)F)c3)CC4)ccnc2[nH]1 [VI-18] | < 500 |
| CCN1CCN(Cc2ccc(NC(=O)N3CCc4ccc(Oc5cc(NC(C)=O)ncn5)cc4C3)cc2C(F)(F)F)CC1 [II-9] | < 500 |
| CCN1CCN(Cc2ccc(NC(=O)N3CCc4ncc(Oc5ncnc6[nH]c(C)cc56)cc4C3C)cc2C(F)(F)F)CC1 (stereo not shown) [VIII-6] | 500 to 5000 |
| CCN1CCN(Cc2ccc(NC(=O)N3Cc4cc(Oc5ccnc6[nH]ncc56)cnc4C(C)C3)cc2C(F)(F)F)CC1 (stereo not shown) [VII-15] | < 500 |
| CCN1CCN(Cc2ccc(NC(=O)N3CCc4cc(C#N)c(Oc5ccnc6[nH]ccc56)cc4C3C)cc2C(F)(F)F)CC1 (stereo not shown) [IV-12] | 500 to 5000 |
| CCN1CCN(Cc2ccc(NC(=O)N3CCc4ccc(Oc5ncnc6[nH]ccc56)cc4C3)cc2C(F)(F)F)CC1 [II-3] | < 500 |
| CCN1CCN(Cc2ccc(NC(=O)N3CCc4ccc(Oc5ccnc6c5CCC(=O)N6)cc4C3)cc2C(F)(F)F)CC1 [II-11] | < 500 |
| CCN1CCN(Cc2ccc(NC(=O)N3CCc4ccc(Oc5ccnn6cc(-c7c[nH]cn7)cc56)cc4C3)cc2C(F)(F)F)CC1 [II-25] | < 500 |
| Cc1cc2c(Oc3ccc4c(c3)[C@H](C)N(C(=O)Nc3cnc5c(N6CCN(C)CC6)cccc5c3)CC4)ccnc2[nH]1 [X-7] | < 500 |
| CCN1CCN(Cc2ccc(NC(=O)N3CCc4cc(C)c(Oc5ccnc6[nH]ccc56)cc4C3)cc2C(F)(F)F)CC1 [III-1] | < 500 |

The remaining lines, values ahead:

| IC50 [nM] | SMILES |
| --- | --- |
| 500 to 5000 | CCN1CCN(Cc2ccc(NC(=O)N3CCc4ncc(Oc5ncnc6[nH]ccc56)cc4C3)cc2C(F)(F)F)CC1 [VII-2] |
| 500 to 5000 | CC1CN(C(=O)Nc2cnc(OC3CCN(C)CC3)c(C(F)(F)F)c2)Cc2cc(Oc3ccnc4[nH]ncc34)cnc21 (stereo not shown) [VII-9] |
| < 500 | CCN1CCN(Cc2ccc(NC(=O)N3CCc4ccc(Oc5ncnn6cc(F)cc56)cc4C3)cc2C(F)(F)F)CC1 [II-8] |
| < 500 | CCN1CCN(Cc2ccc(NC(=O)N3CCc4ncc(Oc5ncnn6cccc56)cc4C3)cc2C(F)(F)F)CC1 [compound 8, N-[4-[(4-Ethylpiperazin-1-yl)methyl]-3-(trifluoromethyl)phenyl]-3-[pyrrolo[2,1-f][1,2,4]triazin-4-yloxy]-5,6,7,8-tetrahydro-1,6-naphthyridine-6-carboxamide] |
| < 500 | CCN1CCN(Cc2ccc(NC(=O)N3Cc4cc(Oc5ccnc6[nH]ccc56)c(F)cc4C(C)C3)cc2C(F)(F)F)CC1 (stereo not shown) [compound 4, 7-((1H-pyrrolo[2,3-b]pyridin-4-yl)oxy)-N-(4-((4-ethylpiperazin-1-yl)methyl)-3-(trifluoromethyl)phenyl)-6-fluoro-4-methyl-3,4-dihydroisoquinoline-2(1H)-carboxamide] |
| 500 to 5000 | CC1CN(C(=O)Nc2cnc(OC3CCN(C)CC3)c(C(F)(F)F)c2)Cc2cc(Oc3ccnc4[nH]ncc34)cnc21 (stereo not shown) [VII-11] |
| < 500 | CCN1CCN(Cc2ccc(NC(=O)N3CCc4ccc(Oc5ccnc6[nH]cnc56)cc4C3)cc2C(F)(F)F)CC1 [II-20] |
| < 500 | CCN1CCN(Cc2ccc(NC(=O)N3CCc4ccc(Oc5ncnc6[nH]ncc56)cc4C3)cc2C(F)(F)F)CC1 [II-5] |
| < 500 | CCN1CCN(Cc2ccc(NC(=O)N3Cc4cc(Oc5ccnc6[nH]c(C)cc56)ccc4C(C)C3)cc2C(F)(F)F)CC1 (stereo not shown) [IV-18] |

Same assay, conditions: 1 mM ATP, Table 20

| SMILES | IC50 [nM] |
| --- | --- |
| CCN1CCN(Cc2ccc(NC(=O)N3CCc4ccc(Oc5cc(NC(=O)c6ccnnc6)ncc5F)cc4[C@@H]3C)cc2C(F)(F)F)CC1 [XIII-14] | < 500 |
| CC[C@H]1CN(C(=O)Nc2ccc(CN3CCN(C)CC3)c(C(F)(F)F)c2)Cc2cc(Oc3ccnc4[nH]c(-c5noc(C)n5)cc34)cnc21 [XIV-133] | < 500 |
| CC[C@H]1CN(C(=O)Nc2cnc(CN3CCN(CC)CC3)c(C(F)(F)F)c2)Cc2cc(Oc3ccnc4[nH]ccc34)cnc21 [XIV-10] | < 500 |
| C[C@H]1c2cc(Oc3ccnc4[nH]c(CO)cc34)ccc2CCN1C(=O)Nc1ccc(CN2CCNCC2)c(C(F)(F)F)c1 [XIII-8] | < 500 |
| CCC1CN(C(=O)Nc2ccc(CN3CCN(CC)CC3)c(C(F)(F)F)c2)Cc2cc(Nc3c(F)cnc4[nH]c(-c5cnn(C)c5)cc34)cnc21 (stereo not shown) [XVII-1] | < 500 |
| CC[C@@H]1CN(C(=O)Nc2ccc(CN3CCN(CC)CC3)c(C(F)(F)F)c2)Cc2cc(Oc3ccnc4[nH]c(C5(O)CC5)cc34)cnc21 [XIV-76] | < 500 |
| CC[C@@H]1CN(C(=O)Nc2ccc(CN3CCN(CCO)CC3)c(C(F)F)c2)Cc2cc(Oc3ccnc4[nH]c(C5CC5)cc34)ccc21 [XV-24] | < 500 |
| CC[C@H]1CN(C(=O)Nc2ccc(CN3CCN(C)CC3)c(C(F)(F)F)c2)Cc2cc(Oc3ccnc4[nH]c(-c5nnc(C)o5)cc34)cnc21 [XIV-112] | < 500 |
| CC[C@@H]1CN(C(=O)Nc2cnc(OC3CCN(C)CC3)c(C(F)(F)F)c2)Cc2cc(Oc3ccnc4[nH]c(C#N)cc34)cnc21 [XIV-42] | < 500 |
| CC[C@H]1CN(C(=O)Nc2ccc(CN3CCN(C)CC3)c(C(F)(F)F)c2)Cc2cc(Oc3ccnc4[nH]c(C(=O)N(C)CCCO)cc34)cnc21 [XIV-111] | < 500 |
| CN1CCN(Cc2ccc(NC(=O)N3CCc4cc(F)c(Nc5c(F)cnc6[nH]c(-c7cnn(C)c7)cc56)cc4C3)cc2C(F)(F)F)CC1 [XVII-3] | < 500 |
| CCN1CCN(Cc2ccc(NC(=O)N3Cc4cc(Oc5c(F)cnc6[nH]c(CO)cc56)cnc4[C@@H](C)C3)cc2C(F)(F)F)CC1 [XIV-95] | < 500 |
| CC[C@H]1CN(C(=O)Nc2ccc(CN3CCNCC3)c(C(F)(F)F)c2)Cc2cc(Oc3ccnc4[nH]c(C5CC5)cc34)cnc21 [XIV-58] | < 500 |

The remaining lines, values ahead:

| IC50 [nM] | SMILES |
| --- | --- |
| < 500 | CN1CCN(Cc2ccc(NC(=O)N3Cc4cc(Oc5ccnc6[nH]c(C7(O)CC7)cc56)ccc4C(C(F)(F)F)C3)cc2C(F)(F)F)CC1 (stereo not shown) [XVIII-12] |
| < 500 | C[C@H]1c2cc(Oc3ccnc4[nH]c(C5(O)COC5)cc34)ccc2CCN1C(=O)Nc1ccc(CN2CCN(C)CC2)c(C(F)F)c1 [XIII-10] |
| < 500 | CC[C@H]1CN(C(=O)Nc2ccc(CN3CCNCC3)c(C(F)(F)F)c2)Cc2cc(Oc3ccnc4[nH]c(CO)cc34)cnc21 [XIV-55] |
| < 500 | C[C@H]1c2cc(Oc3ccnc4[nH]c(C5(O)COC5)cc34)ccc2CCN1C(=O)Nc1ccc(CN2CCNCC2)c(C(F)(F)F)c1 [XIII-7] |
| < 500 | CC[C@H]1CN(C(=O)Nc2ccc(CN3CCNCC3)c(C(F)(F)F)c2)Cc2cc(Oc3ccnc4[nH]c(-c5noc(C)n5)cc34)cnc21 [XIV-136] |
| < 500 | C[C@H]1CN(C(=O)Nc2ccc(CN3CCN(C)CC3)c(C(F)(F)F)c2)Cc2cc(Oc3ccnc4[nH]c(CO)cc34)cnc21 [XIV-78] |
| < 500 | CC[C@H]1CN(C(=O)Nc2cnc(OC3CCN(C)CC3)c(C(F)(F)F)c2)Cc2cc(Oc3ccnc4[nH]c(CCOC)cc34)cnc21 [XIV-35] |
| < 500 | CC[C@@H]1CN(C(=O)Nc2ccc(CN3CCN(CCO)CC3)c(C(F)(F)F)c2)Cc2cc(Oc3ccnc4[nH]c(C5CC5)cc34)cnc21 [XIV-65] |
| < 500 | CC[C@@H]1CN(C(=O)Nc2ccc(CN3CCN(CC)CC3)c(C(F)(F)F)c2)Cc2cc(Oc3ccnc4[nH]c(C5CC5)cc34)cnc21 [XIV-23] |
| < 500 | CC[C@H]1CN(C(=O)Nc2ccc(CN3CCN(C)CC3)c(C(F)(F)F)c2)Cc2cc(Oc3ccnc4[nH]c(C5CC5)cc34)cnc21 [XIV-72] |
| < 500 | CC[C@H]1CN(C(=O)Nc2ccc(CN3CCNCC3)c(C(F)(F)F)c2)Cc2cc(Oc3ccnc4[nH]c(-c5n[nH]c(=O)o5)cc34)cnc21 [XIV-130] |
| < 500 | CC[C@H]1CN(C(=O)Nc2ccc(CN3CCNCC3)c(C(F)(F)F)c2)Cc2cc(Oc3ncnc4[nH]c(C(=O)N(C)C)cc34)cnc21 [XIV-126] |
| < 500 | C[C@H]1CN(C(=O)Nc2ccc(CN3CCN(C)CC3)c(C(F)(F)F)c2)Cc2cc(Oc3ccnc4[nH]c(C5(O)COC5)cc34)ccc21 [XV-32] |
| < 500 | CC[C@H]1CN(C(=O)Nc2ccc(CN3CCN(C)CC3)c(C(F)(F)F)c2)Cc2cc(Oc3ccnc4[nH]c(C#N)cc34)cnc21 [compound 20, (8S)-3-[(2-Cyano-1H-pyrrolo[2,3-b]pyridin-4-yl)oxy]-8-ethyl-N-[4-[(4-methylpiperazin-1-yl)methyl]-3-(trifluoromethyl)phenyl]-7,8-dihydro-5H-1,6-naphthyridine-6-carboxamide] |
| < 500 | CN1CCN(Cc2ncc(NC(=O)N3CCc4ccc(Oc5c(F)cnc6[nH]c(-c7ccncc7)cc56)cc4C3)cc2C(F)(F)F)CC1 [XII-10] |
| 5000 to 10000 | CC[C@@H]1CN(C(=O)Nc2ccc(CN3CCN(C)CC3)c(C(F)(F)F)c2)Cc2cc(Oc3ccnn4cc(C(=O)N(C)C)nc34)cnc21 [XIV-115] |
| < 500 | Cc1cc2c(Oc3cnc4c(c3)CN(C(=O)Nc3ccc(CN5CCNC6(CC6)C5)c(C(F)(F)F)c3)C[C@H]4C)ccnc2[nH]1 [XIV-94] |
